Results published in PubChem BioAssay (NCI).
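Method: 48-hour compound exposure of cells in 96-well plates, five concentrations, linear interpolation of endpoints. GI50 is the concentration that inhibits growth by half. TGI is the concentration that stops growth completely.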

Assays:
Assay in all cases: growth of human tumour cells (NCI), 48 h
[1] = tested on: OVCAR-5 ovarian
[2] = tested on: HOP-62 NSCLC
[3] = tested on: SK-OV-3 ovarian
[4] = tested on: SN12C renal
[5] = tested on: HL-60(TB) leukemia
[6] = tested on: OVCAR-8 ovarian
[7] = tested on: HCT-116 colon
[8] = tested on: KM12 colon
[9] = tested on: UACC-257 melanoma
[10] = tested on: MOLT-4 leukemia
[11] = tested on: 786-0 renal
[12] = tested on: IGROV1 ovarian
[13] = tested on: RXF 393 renal
[14] = tested on: EKVX NSCLC
[15] = tested on: MALME-3M melanoma
[16] = tested on: HCT-15 colon
[17] = tested on: ACHN renal
[18] = tested on: MCF7 breast
[19] = tested on: U251 CNS
[20] = tested on: SF-295 CNS
[21] = tested on: MDA-MB-435
[22] = tested on: SK-MEL-28 melanoma
[23] = tested on: CAKI-1 renal
[24] = tested on: SR leukemia
[25] = tested on: BT-549 breast
[26] = tested on: M14 melanoma
[27] = tested on: HS 578T breast
[28] = tested on: SNB-19 CNS
[29] = tested on: UO-31 renal
[30] = tested on: SF-539 CNS
[31] = tested on: RPMI-8226 leukemia
[32] = tested on: SK-MEL-5 melanoma
[33] = tested on: NCI-H226 lung
[34] = tested on: PC-3 prostate
[35] = tested on: COLO 205 colon
[36] = tested on: MDA-MB-231 breast
[37] = tested on: SNB-75 CNS
[38] = tested on: DU-145 prostate
[39] = tested on: HOP-92 NSCLC
[40] = tested on: OVCAR-3 ovarian
[41] = tested on: HT29 colon
[42] = tested on: TK-10 renal
[43] = tested on: NCI-H522 lung
[44] = tested on: SK-MEL-2 melanoma
[45] = tested on: LOX IMVI melanoma
[46] = tested on: SF-268 CNS
[47] = tested on: A549 NSCLC
[48] = tested on: OVCAR-4 ovarian

OC1CCN(CCCOc2c3ccc(Cl)cc3nc3c2oc2ccccc23)CC1
GI50 [1]: 1970 nM
TGI [1]: 6850 nM
GI50 [2]: 1860 nM
TGI [2]: 11400 nM
GI50 [3]: 2420 nM
TGI [3]: 10500 nM
GI50 [4]: 839 nM
TGI [4]: > 100000 nM
GI50 [5]: 1580 nM
TGI [5]: 4800 nM
GI50 [6]: 1130 nM
TGI [6]: 13500 nM
GI50 [7]: 390 nM
TGI [7]: 2110 nM
GI50 [8]: 1480 nM
TGI [8]: > 100000 nM
GI50 [9]: 1720 nM
TGI [9]: 3490 nM
GI50 [10]: 391 nM
TGI [10]: 3200 nM
GI50 [11]: 1300 nM
TGI [11]: 4860 nM
GI50 [12]: 1970 nM
TGI [12]: 12500 nM
GI50 [13]: 1280 nM
TGI [13]: 3360 nM
GI50 [14]: 2390 nM
TGI [14]: 8460 nM
GI50 [15]: 1490 nM
TGI [15]: 3100 nM
GI50 [16]: 780 nM
TGI [16]: > 100000 nM
GI50 [17]: 491 nM
TGI [17]: 11700 nM
GI50 [18]: 968 nM
TGI [18]: 4300 nM
GI50 [19]: 1090 nM
TGI [19]: 7400 nM
GI50 [20]: 2080 nM
TGI [20]: 11800 nM
GI50 [21]: 1230 nM
TGI [21]: 2570 nM
GI50 [22]: 1690 nM
TGI [22]: 3170 nM
GI50 [23]: 525 nM
TGI [23]: 3350 nM
GI50 [24]: 458 nM
TGI [24]: 3230 nM
GI50 [25]: 2490 nM
TGI [25]: 7240 nM
GI50 [26]: 1340 nM
TGI [26]: 3090 nM
GI50 [27]: 2170 nM
TGI [27]: 8010 nM
GI50 [28]: 2280 nM
TGI [28]: 32600 nM
GI50 [29]: 517 nM
TGI [29]: 3100 nM
GI50 [30]: 1320 nM
TGI [30]: 2640 nM
GI50 [31]: 1590 nM
TGI [31]: 4800 nM
GI50 [32]: 1790 nM
TGI [32]: 3250 nM
GI50 [33]: 1990 nM
TGI [33]: 5630 nM
GI50 [34]: 1490 nM
TGI [34]: 4070 nM
GI50 [35]: 661 nM
TGI [35]: 2150 nM
GI50 [36]: 1570 nM
TGI [36]: 6130 nM
GI50 [37]: 1330 nM
TGI [37]: 2700 nM
GI50 [38]: 1570 nM
TGI [38]: > 100000 nM
GI50 [39]: 1040 nM
TGI [39]: 3790 nM
GI50 [40]: 2200 nM
TGI [40]: > 100000 nM
GI50 [41]: 610 nM
TGI [41]: 2270 nM
GI50 [42]: 2780 nM
TGI [42]: 7650 nM
GI50 [43]: 1280 nM
TGI [43]: 3200 nM
GI50 [44]: 1760 nM
TGI [44]: 3340 nM
GI50 [45]: 343 nM
TGI [45]: 1450 nM
GI50 [46]: 1490 nM
TGI [46]: > 100000 nM
GI50 [47]: 1230 nM
TGI [47]: 23200 nM
GI50 [48]: 1390 nM
TGI [48]: 5090 nM
